Measurements: patent publication US7312248B2, “Control of parasites in animals by the use of novel trifluoromethanesulfonanilide oxime ether derivatives” (Schering-Plough Animal Health Corporation, priority 2004, dated 2007)
Like-named read-outs stand apart in the source and are kept apart here.

Legend:
Haemonchus contortus = Haemonchus contortus larvacidal (larval development) assay; format: in vivo; settings: 144 h, read-out: Haemonchus contortus LD99
Method: a) Haemonchus Contortus Larvacidal Assay:
The effect of compounds on larval development was determined in the assay described by Gill et al. (1995, International Journal of Parasitology 25:463-470). Briefly, in this assay, nematode eggs were applied to the surface of an agar matrix containing the test compound and then allowed to develop through to the L3, infective stage (6 days). The wells for each dilution of every compound (from highest to lowest concentration) were inspected to determine the well number corresponding to the lowest concentration at which development was inhibited in 99% of the nematode larvae present (LD99). Because well numbers correspond to a two-fold serial dilution of each compound, a titre (dilution factor) is generated as 2^n−1, where n is the well number. By dividing the highest concentration tested by the titre an LD99 value can be obtained, representing the concentration required to inhibit development in 99% of the nematode larvae present. The compounds supplied as solid and viscous liquids were dissolved in DMSO. Twelve serial one-half dilutions in DMSO solution were prepared from the stock solution, each of which was then diluted ⅕ with water. Aliquots (10 μl) of each dilution were transferred to the bioassay plates to give a final concentration range of 0.024 to 50 μg/ml.

[1] = system: cat flea (Ctenocephalides felis); assay: whole plant or invertebrate; format: in vivo; settings: Laboratory 2 B data; for mortality at 1.26 µg/cm2, 1.26 µg/cm2: Ctenocephalides felis
Method: b) Ctenocephalides felis Adulticide Assay: C. felis Single Dose Screen
Mortality of fleas was the primary endpoint in the assay. Fleas were considered dead if they didn't move or were on their sides and unable to walk or right themselves. […] The concentration chosen (1.26 μg/cm^2) was higher than that known to kill 90% of cat fleas (LC90) using the reference compound, permethrin.
The test species was the cat flea (Ctenocephalides felis). The strain used was obtained from external suppliers as pupae and held in the laboratory under testing conditions until the adults had emerged. Fifteen (15) fleas were used in a minimum of four replicates against a single concentration level (approximately 60 fleas). The insects were selected to be in the adult life stage, aged between 3 and 7 days post emergence.
The compounds to be tested were supplied as solids and were prepared in acetone as described below prior to testing. Samples were stored in a refrigerator (5±1° C.) unless otherwise specified.
During the mortality testing, the temperature was maintained at 25±1° C. Humidity was maintained at 75±5%. The base (area=159 mm^2) of a 100 mL glass Erlenmeyer (conical) flask provided the treatment surface. Flasks were pretreated with Coatasil™ glass treatment to maximise bio-availability of test compounds by preventing them from binding to glass the surface. The base of the 100 mL Erlenmeyer flask was treated with 0.5 mL of test sample in acetone and gently swirled. This volume was sufficient to cover the base of the flask. Flasks were left to dry for 24 hours before flea exposure.
Adult cat fleas were placed into a sorting chamber, which allowed fleas to jump into the Erlenmeyer flasks. Fifteen (15) adult cat fleas were collected in each flask. The top of the flasks were then covered in Parafilm™ and small holes were made to allow gas exchange. A 0.5 mL volume of acetone as a solvent control was applied to the base of an Erlenmeyer flask and the testing proceeded in the same manner described above. Cat fleas in the treatment containers were held under testing conditions for 8, 24 and/or 48 hours. Mortality was recorded at 8, 24, 8 and 24, or 24 and 48 hours. Pooled 8, 24, 8 and 24, and 24 and 48 hour mortality data were converted to percentages and are summarized by Tables 14, 14A and 14B, below.

[2] = 24 h, read-out: C. felis Mortality (%) 24 h, 24 h
[3] = 48 h, read-out: C. felis Mortality (%) 48 h, 48 h

SMILES	IC99 (Haemonchus contortus)	further results
C/C(=N\OCc1ccc([N+](=O)[O-])cc1)c1cc(Cl)ccc1NS(=O)(=O)C(F)(F)F [Compound 4]	2.5 µg/mL	
CC/C(=N\OCc1cccc(Cl)c1)c1cc(Cl)ccc1NS(=O)(=O)C(F)(F)F [Compound 7]	1.6 µg/mL	
CC/C(=N\OCc1c(Cl)cccc1Cl)c1cc(Cl)ccc1NS(=O)(=O)C(F)(F)F [Compound 8]	13 µg/mL	
CC/C(=N\OCc1cccc(C(F)(F)F)c1)c1cc(Cl)ccc1NS(=O)(=O)C(F)(F)F [Compound 12]	1.7 µg/mL	
C/C(=N\OCc1ccccc1C(F)(F)F)c1cc(Cl)ccc1NS(=O)(=O)C(F)(F)F [Compound 13]	3 µg/mL	
C/C(=N\OCc1cccc(C(F)(F)F)c1)c1cc(Cl)ccc1NS(=O)(=O)C(F)(F)F [Compound 15]	2.7 µg/mL	
C/C(=N\OCc1ccccc1Cl)c1cc(Cl)ccc1NS(=O)(=O)C(F)(F)F [Compound 17]	3.5 µg/mL	
C/C(=N\OCc1cccc(Cl)c1)c1cc(Cl)ccc1NS(=O)(=O)C(F)(F)F [Compound 18]	3.7 µg/mL	
C/C(=N\OCc1cccc(Cl)c1Cl)c1cc(Cl)ccc1NS(=O)(=O)C(F)(F)F [Compound 19]	0.7 µg/mL	
C/C(=N\OCc1c(Cl)cccc1Cl)c1cc(Cl)ccc1NS(=O)(=O)C(F)(F)F [Compound 20]	12 µg/mL	
C/C(=N\OCc1ccccc1)c1cc(Cl)ccc1NS(=O)(=O)C(F)(F)F [Compound 22]	6 µg/mL	
C/C(=N\OCc1ccc(Br)cc1)c1cc(Cl)ccc1NS(=O)(=O)C(F)(F)F [Compound 23]	0.8 µg/mL	
C/C(=N\OCc1ccccc1F)c1cc(Cl)ccc1NS(=O)(=O)C(F)(F)F [Compound 39]	7 µg/mL	
C/C(=N\OCc1cccc(Oc2ccccc2)c1)c1cc(Cl)ccc1NS(=O)(=O)C(F)(F)F [Compound 47]	1.5 µg/mL	
O=S(=O)(Nc1ccc(Cl)cc1/C(=N/OCc1cccc(Cl)c1Cl)c1ccccc1)C(F)(F)F [Compound 62]	3 µg/mL	
O=S(=O)(Nc1ccc(Cl)cc1/C(=N/OCc1ccc(Cl)cc1)c1ccccc1)C(F)(F)F [Compound 63]	1.6 µg/mL	
O=S(=O)(Nc1ccc(Cl)cc1/C(=N/OCc1ccc(Br)cc1)c1ccccc1)C(F)(F)F [Compound 64, N-{2-[(4-bromobenzyloxyimino)phenylmethyl]-4-chlorophenyl}trifluoromethanesulfonamide]	1.4 µg/mL	
O=S(=O)(Nc1ccc(Cl)cc1/C(=N/OCc1ccccc1)c1ccccc1)C(F)(F)F [Compound 66]	13 µg/mL	
O=S(=O)(Nc1ccc(Cl)cc1/C(=N/OCc1cccc(C(F)(F)F)c1)c1ccccc1)C(F)(F)F [Compound 68]	3.5 µg/mL	
C/C(=N\OC1CCCC1)c1ccc(C(F)(F)F)cc1NS(=O)(=O)C(F)(F)F [Compound 239]		mortality at 1.26 µg/cm2, 1.26 µg/cm2 [1, 2]: 86%; mortality at 1.26 µg/cm2, 1.26 µg/cm2 [1, 3]: 100%
C/C(=N\OCC(C)C)c1ccc(C(F)(F)F)cc1NS(=O)(=O)C(F)(F)F [Compound 240]		mortality at 1.26 µg/cm2, 1.26 µg/cm2 [1, 2]: 64%; mortality at 1.26 µg/cm2, 1.26 µg/cm2 [1, 3]: 98%
C/C(=N\OCCC(C)C)c1cc(Cl)ccc1NS(=O)(=O)C(F)(F)F [Compound 246]		mortality at 1.26 µg/cm2, 1.26 µg/cm2 [1, 2]: 98%; mortality at 1.26 µg/cm2, 1.26 µg/cm2 [1, 3]: 100%
CC/C(=N\OCCC(C)C)c1cc(Cl)ccc1NS(=O)(=O)C(F)(F)F [Compound 248]		C. felis Mortality (%) 24 h ([1]; 24 h): 96^B %; C. felis Mortality (%) 48 h ([1]; 48 h): 100%
